# In patent US8101605B2, “SHIP1 modulators and methods related thereto” (Aquinox Pharmaceuticals Inc., priority 2009, dated 2012):
# Molecular target: T1, His-hSHIP1 enzyme (Homo sapiens, UniProt Q92835)
# T1 sequence (Q92835 1-1189): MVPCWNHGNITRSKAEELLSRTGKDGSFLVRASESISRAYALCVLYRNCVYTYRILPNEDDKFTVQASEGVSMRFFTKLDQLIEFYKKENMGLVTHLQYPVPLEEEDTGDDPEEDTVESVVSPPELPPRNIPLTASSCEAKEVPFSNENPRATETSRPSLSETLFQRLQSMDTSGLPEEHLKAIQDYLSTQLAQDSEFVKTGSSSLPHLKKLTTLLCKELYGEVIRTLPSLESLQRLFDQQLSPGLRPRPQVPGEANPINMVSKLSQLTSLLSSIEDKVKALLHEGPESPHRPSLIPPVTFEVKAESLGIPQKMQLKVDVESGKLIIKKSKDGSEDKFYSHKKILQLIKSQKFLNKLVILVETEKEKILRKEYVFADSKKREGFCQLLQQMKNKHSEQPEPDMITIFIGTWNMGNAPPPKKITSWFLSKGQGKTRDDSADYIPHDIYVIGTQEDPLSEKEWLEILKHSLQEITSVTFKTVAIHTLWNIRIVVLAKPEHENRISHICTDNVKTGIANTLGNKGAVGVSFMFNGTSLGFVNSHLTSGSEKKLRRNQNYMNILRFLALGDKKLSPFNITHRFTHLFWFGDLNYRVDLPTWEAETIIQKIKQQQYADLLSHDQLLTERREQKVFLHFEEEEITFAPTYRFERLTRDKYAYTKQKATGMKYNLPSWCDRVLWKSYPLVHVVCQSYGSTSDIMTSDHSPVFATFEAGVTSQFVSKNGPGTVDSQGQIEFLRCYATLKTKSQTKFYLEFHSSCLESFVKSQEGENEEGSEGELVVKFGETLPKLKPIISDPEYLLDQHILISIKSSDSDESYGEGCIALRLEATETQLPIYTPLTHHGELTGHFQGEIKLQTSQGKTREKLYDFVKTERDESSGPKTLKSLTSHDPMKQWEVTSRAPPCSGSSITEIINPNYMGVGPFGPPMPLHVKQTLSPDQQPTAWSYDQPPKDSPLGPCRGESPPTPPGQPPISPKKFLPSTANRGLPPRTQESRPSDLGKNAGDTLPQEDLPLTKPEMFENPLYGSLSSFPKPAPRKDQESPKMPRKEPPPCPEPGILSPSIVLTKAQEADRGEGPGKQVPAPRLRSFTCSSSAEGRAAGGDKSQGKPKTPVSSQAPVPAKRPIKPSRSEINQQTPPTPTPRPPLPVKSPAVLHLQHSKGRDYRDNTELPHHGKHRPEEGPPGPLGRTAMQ
# Test: His-hSHIP1 phosphatase activity assay (IP4 substrate, Biomol Green)
# Format: biochemical
# Settings: percentage increase relative to background; concentrations ≦300 μM
# Description: Test compounds were dissolved in 95% ethanol to form stock solutions. Before screening, the stock solutions were diluted with Phosphatase Assay Buffer (20 mM Tris-HCL, 10 mM MgCl2 pH 7.5, 0.02% Tween 20) to form working assay solutions that contained 10% ethanol. The assay was carried out on 96-well microtiter plates using a modified procedure of that reported by Ong et al., Blood 110, 1942-1949, 2007 and Yang et al., Org Lett 7, 1073-1076, 2005, both of which references are incorporated herein by reference in their entirety.
# Each reaction contained 5 μL of His-hSHIP1 enzyme (15-20 ng), 10 μL of the substrate, 1,3,4,5-inositol tetrakisphosphate (IP4; 50 μM final), 5 μL of Phosphatase Assay Buffer, and 5 μL of test compound at various concentrations in 10% ethanol (0-300 μM final). Control blanks were also prepared by replacing His-hSHIP1 enzyme, IP4, or test compounds with Phosphatase Assay Buffer. After adding the reaction components in a 96-well microtiter plate on ice, the reaction was mixed by briefly shaking the plate vigorously. The reaction was then incubated at 37° C. for 15 min with gentle shaking followed by addition of 100 μL of Biomol Green Reagent (BIOMOL, PA, USA) to terminate the reaction. The free phosphate released from IP4 by His-hSHIP1 bound to the Biomol Green Reagent, turning the solution green in colour. After incubating the mixture for 20 min at room temperature for colour development, the absorbance was read with a SpectraMax Plus 96-well plate reader (Molecular Devices, Sunnyvale, Calif., USA) at a wavelength of 650 nm.
# Percent (%) activation in Table 2 is expressed as a percentage increase relative to background. Scoring is expressed as follows: + (<50%); ++ (≧50% but <65%); +++ (≧65%).
row,SMILES,Scoring: percent (%) activation of His-hSHIP1 enzyme
1,"CC1(C)CCC[C@]2(C)[C@H]3CS(=O)(=O)c4cc(OCC(=O)O)cc(O)c4[C@]3(C)CC[C@@H]12 [compound 105, 2-{[(1R,10R,11S,16S)-3-hydroxy-1,11,15,15-tetramethyl-8,8-dioxo-8^6-thiatetracyclo[8.8.0.0^2,7.0^11,16]octadeca-2,4,6-trien-5-yl]oxy}acetic acid]",+ (<50%)
2,"CC1(C)CCC[C@]2(C)[C@H]3C[S+]([O-])c4cc(O)cc(O)c4[C@]3(C)CC[C@@H]12 (stereo partly drawn) [Compound No. 27, (1R,10R,11S,16S)-3,5-dihydroxy-1,11,15,15-tetramethyl-8-thiatetracyclo[8.8.0.0^2,7.0^11,16]octadeca-2,4,6-trien-8-one]",++ (≧50% but <65%)
3,"CNC(=O)c1cc(O)cc2c1[C@]1(C)CC[C@H]3C(C)(C)CCC[C@]3(C)[C@H]1CS2 [compound 76, (1R,10R,11S,16S)-5-hydroxy-N,1,11,15,15-pentamethyl-8-thiatetracyclo-[8.8.0.0^2,7.0^11,16]octadeca-2,4,6-triene-3-carboxamide]",+ (<50%)
4,"CNC(=O)c1cc2c(cc1O)S(=O)(=O)C[C@@H]1[C@@]3(C)CCCC(C)(C)[C@@H]3CC[C@@]21C [compound 73, (1R,10R,11S,16S)-5-hydroxy-N,1,11,15,15-pentamethyl-8,8-dioxo-8λ^6-thiatetracyclo[8.8.0.0^2,7.0^11,16]octadeca-2,4,6-triene-4-carboxamide]",+ (<50%)
5,"COc1cc(C(=O)O)cc2c1[C@]1(C)CC[C@H]3C(C)(C)CCC[C@]3(C)[C@H]1CS2(=O)=O [compound 80, (1R,10R,11S,16S)-3-methoxy-1,11,15,15-tetramethyl-8,8-dioxo-8λ^6-thiatetracyclo[8.8.0.0^2,7.0^11,16]octadeca-2,4,6-triene-5-carboxylic acid]",+ (<50%)
6,"COc1cc(O)cc2c1[C@]1(C)CC[C@H]3C(C)(C)CCC[C@]3(C)[C@H]1CS2 [Compound No. 25, (1R,10R,11S,16S)-3-methoxy-1,11,15,15-tetramethyl-8-thiatetracyclo[8.8.0.0^2,7.0^11,16]octadeca-2,4,6-trien-5-ol]",++ (≧50% but <65%)
7,"CC1(C)CCC[C@]2(C)[C@H]3CS(=O)(=O)c4cc(O)cc(C(=O)N5CCOCC5)c4[C@]3(C)CC[C@@H]12 [compound 88, (1R,10R,11S,16S)-5-hydroxy-1,11,15,15-tetramethyl-3-[(morpholin-4-yl)carbonyl]-8λ^6-thiatetracyclo-[8.8.0.0^2,7.0^11,16]octadeca-2,4,6-triene-8,8-dione]",+ (<50%)
8,"COc1cc(OCC(=O)O)cc2c1[C@]1(C)CC[C@H]3C(C)(C)CCC[C@]3(C)[C@H]1CS2(=O)=O [compound 104, 2-{[(1R,10R,11S,16S)-3-methoxy-1,11,15,15-tetramethyl-8,8-dioxo-8^6-thiatetracyclo[8.8.0.0^2,7.0^11,16]octadeca-2,4,6-trien-5-yl]oxy}acetic acid]",+ (<50%)

# The remaining lines, values ahead:
row,Scoring: percent (%) activation of His-hSHIP1 enzyme,SMILES
1,+ (<50%),"CNC(=O)c1cc(O)cc2c1[C@]1(C)CC[C@H]3C(C)(C)CCC[C@]3(C)[C@H]1CS2(=O)=O [compound 66, (1R,10R,11S,16S)-5-hydroxy-N,1,11,15,15-pentamethyl-8,8-dioxo-8λ^6-thiatetracyclo[8.8.0.0^2,7.0^11,16]octadeca-2,4,6-triene-3-carboxamide]"
2,+ (<50%),"CONC(=O)c1cc(O)cc2c1[C@]1(C)CC[C@H]3C(C)(C)CCC[C@]3(C)[C@H]1CS2(=O)=O [compound 95, (1R,10R,11S,16S)-5-hydroxy-N-methoxy-1,11,15,15-tetramethyl-8,8-dioxo-8λ^6-thiatetracyclo[8.8.0.0^2,7.0^11,16]octadeca-2,4,6-triene-3-carboxamide]"
3,+ (<50%),"CC1(C)CCC[C@]2(C)[C@H]3CS(=O)(=O)c4cc(C(=O)O)cc(C(=O)O)c4[C@]3(C)CC[C@@H]12 [compound 85, (1R,10R,11S,16S)-1,11,15,15-tetramethyl-8,8-dioxo-8λ^6-thiatetracyclo[8.8.0.0^2,7.0^11,16]octadeca-2,4,6-triene-3,5-dicarboxylic acid]"
4,+ (<50%),"CC1(C)CCC[C@]2(C)[C@H]3CS(=O)(=O)c4cc(C(=O)NCC(=O)O)cc(O)c4[C@]3(C)CC[C@@H]12 [compound 93, 2-{[(1R,10R,11S,16S)-3-hydroxy-1,11,15,15-tetramethyl-8,8-dioxo-8λ^6-thiatetracyclo[8.8.0.0^2,7.0^11,16]octadeca-2,4,6-trien-5-yl]formamido}acetic acid]"
5,+ (<50%),"COC(=O)c1cc(C(=O)O)cc2c1[C@]1(C)CC[C@H]3C(C)(C)CCC[C@]3(C)[C@H]1CS2(=O)=O [compound 84, (1R,10R,11S,16S)-3-(methoxycarbonyl)-1,11,15,15-tetramethyl-8,8-dioxo-8λ^6-thiatetracyclo[8.8.0.0^2,7.0^11,16]octadeca-2,4,6-triene-5-carboxylic acid]"
6,+ (<50%),"COC(=O)CNC(=O)c1cc(O)cc2c1[C@]1(C)CC[C@H]3C(C)(C)CCC[C@]3(C)[C@H]1CS2(=O)=O [compound 90, methyl 2-{[(1R,10R,11S,16S)-5-hydroxy-1,11,15,15-tetramethyl-8,8-dioxo-8λ^6-thiatetracyclo[8.8.0.0^2,7.0^11,16]octadeca-2,4,6-trien-3-yl]formamido}acetate]"

# Tested on: OPM2 cells
# Test: Inhibition of OPM2 proliferation (BrdU ELISA)
# Format: cell-based
# Settings: Homo sapiens, OPM-2, 72 hours, read-out: Scoring: % inhibition of OPM2 proliferation
# Description: Test compounds were dissolved in 100% DMSO to form stock solutions. Prior to screening, the stock solutions were diluted with complete media (RPMI 1640 containing 10% fetal calf serum, 2 mM L-glutamine and 50 U/mL each of penicillin and streptomycin) to form working assay solutions that contain 0.2% DMSO. The assay was initiated by adding 30,000 OPM2 cells (in 50 μL) to 50 μL of representative compounds at concentrations ranging from 0.03 to 30 μM. The cells were incubated for 72 hours in a humidified CO2 incubator with the addition of 10 μM BrdU for the final 6 hours according to the directions from the Roche BrdU Cell Proliferation ELISA kit used to detect proliferation (Roche, Cat. No. 11 647 229 001). OPM2 cells incubated in 0.1% DMSO in complete media were used as a negative control and the PI3Kα Inhibitor 2 (3-[4-(4-morpholinyl)thieno[3,2-d]pyrimidin-2-yl-phenol, Cayman Chemical, Cat. No. 10010177) was used as a positive control for inhibition of proliferation. At the end of the incubation, the plate containing the labeled cells was centrifuged, the supernatant removed and the cell pellets dried at 60° C. for 1 hour and stored at 4° C. until further analysis. Analysis of BrdU incorporation was done according to the manufacturer's instructions.
row,SMILES,inhibition at 30 µM [%]
1,"CC1(C)CCC[C@]2(C)[C@H]3CS(=O)(=O)c4cc(OCC(=O)O)cc(OCC(=O)O)c4[C@]3(C)CC[C@@H]12 [compound 108, 2-{[(1R,10R,11S,16S)-3-(carboxymethoxy)-1,11,15,15-tetramethyl-8,8-dioxo-8^6-thiatetracyclo[8.8.0.0^2,7.0^11,16]octadeca-2,4,6-trien-5-yl]oxy}acetic acid]",< 25
